Measured values as given in PubChem BioAssay AID179 (DTP/NCI, 2004).
The source made the active and inactive calls.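 Rule for the calls: active = compounds giving half or more protection of infected cells from virus-caused growth loss, again on retest; inactive = the rest.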

System: CEM cells HIV-1 protection, formazan growth assay
Experiment: NCI AIDS Antiviral Assay
Settings: for IC50: measured here: growth of uninfected CEM cells
Outline: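 Protection of CEM cells against HIV-1 measured as cell growth via soluble formazan read-out, with five concentrations tested on both infected and uninfected cells; failure to protect may reflect toxicity.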

SMILES | EC50 [µM] | IC50 [µM] | outcome
O=C1C=C(CCC2=CC(=O)c3ccccc3C2=O)C(=O)c2ccccc21 | > 200 | 91.2 | –
O=[N+]([O-])O.[Ga] | > 100 | > 100 | –
Cc1cccc(N(CC(=O)O)S(=O)(=O)c2ccccc2)c1 | – | – | inactive
CC1C=C(OC(=O)c2ccccc2)C(=O)C(n2cc(F)c(=O)[nH]c2=O)O1 (centres undefined) | – | – | inactive
CC(SCCCCCCCCCCCCSC(C)C(=O)O)C(=O)O (centres undefined) | > 79.4 | > 79.4 | –
Cc1ccc(S(=O)(=O)N/C(=C\C=C\c2ccccc2)C(=O)C(C)(C)C)cc1 | 38.9 | 57.5 | –
Nc1ccc(C(=O)N/C(=C\c2cccc([N+](=O)[O-])c2)c2nc3c4c(ccc3[nH]2)C(=O)c2ccccc2C4=O)cc1 | – | – | inactive
O=[N+]([O-])c1c(O)c2nonc2c2nn(-c3ccccc3)nc12 | > 200 | 120 | –
Nc1nc(Cl)cc(Nc2cc(Cl)cc(Cl)c2)n1 | > 200 | 23.4 | –
Cc1c(Cc2ccccc2)n(C(C)OCCN2C(=O)C=CC2=O)c(=O)[nH]c1=O (centres undefined) | > 200 | 9.77 | –
C[C@]12CC[C@@H]3c4cc(I)c(O)cc4CC[C@H]3[C@@H]1CC[C@@H]2O | > 200 | 2.09 | –
CN(C)CCCNCc1cc(N(C)C)cc(CNCCCN(C)C)n1 | > 200 | > 200 | –
O=C1OC(Cc2ccccc2)=C(Cl)C(Cl)(Cc2ccccc2)C1Cl (centres undefined) | > 200 | 5.25 | –
CC(C)(Oc1ccc(C(=O)c2ccc(Cl)cc2)cc1Cl)C(=O)N1CCN(CCO)CC1 | > 200 | 4.47 | –
CCCCC(C=O)(C=C=C(C)C)CC (centres undefined) | > 339 | 34.7 | –
Cn1c2ccccc2n2c3ccccc3c(=S)c(C#N)c12 | > 100 | > 100 | –
CC1=NN(C(=O)c2ccc(Cl)cc2)C(=O)/C1=C/c1cccc(O)c1 | > 7.94 | > 7.94 | –
CN(C)CC1COC2Cc3ccccc3C1O2 (centres undefined) | > 200 | > 200 | –
COc1cc2c(cc1Oc1c(Oc3c(O)c(OC)cc4c3C(CC(C)C)N(C)CC4)c(OC)cc3c1C(CC(C)C)N(C)CC3)C(CC(C)C)N(C)CC2 (centres undefined) | – | – | inactive
Cc1ncc(COP(=O)(O)O)c(/C=C2\SC(=S)NC2=O)c1O | > 200 | > 200 | –
CC1NOC(=O)C1N=Nc1ccccc1Br (centres undefined) | > 66.1 | 63.1 | –

SMILES | EC50 [µM] | IC50 [µM] | outcome
O=S1(=O)CC(c2ccccc2)=NN=C(c2ccccc2)C1 | > 61.7 | > 61.7 | –
O=C1NC(=O)C(CCC(=O)c2ccc3ccccc3c2)C(=O)N1 | > 110 | > 110 | –
Cc1cccc(Nc2nc(NNC(=O)Cc3ccccc3)nc(NNC(=O)c3ccncc3)n2)c1 | > 100 | > 100 | –
CCCCNC(=NCc1ccccc1)NC#N | > 407 | 295 | –
N#Cc1ccccc1Sc1ccccc1N | > 158 | > 158 | –
Cc1cc(=O)c2c([nH]1)NS(=O)(=O)NC2=O | > 1480 | > 1480 | –
Cc1cn(C2CC(N=[N+]=[N-])C(COP(=O)(OCC(=O)c3ccco3)OCC(=O)c3ccco3)O2)c(=O)[nH]c1=O (centres undefined) | 0.00457 | 2 | –
COC(=O)c1cc2c3c(c1)Oc1cc(C(=O)OC)cc4c1C3c1c(cc(C(=O)OC)cc1O4)O2 | > 200 | 55 | –
COC(=O)c1c(C)cccc1/C=C1\Cc2ccc(C)c(C)c2C1=O | > 200 | > 200 | –
N#CC(C(=S)Nc1ccccc1)=C1Nc2ccccc2N1 | > 200 | > 200 | –
O=C(c1ccc(Cl)cc1)c1cc2c([nH]c1=O)CCCCC2 | – | – | inactive
O=C(Nn1c(-c2ccccc2)nc2ccccc2c1=O)c1cccc([N+](=O)[O-])c1 | > 200 | 166 | –
N#CSC1CCCCCCC1SC#N (centres undefined) | > 200 | 10.5 | –
CC1(C)C=C(/C=N/Nc2ccccc2)C(C#N)=C(O)C1(C#N)C#N | > 200 | 23.4 | –
OC1CCN(Cc2ccccc2)C[C@@H]1CNC12CC3CC(CC(C3)C1)C2 (some centres undefined) | > 100 | 93.3 | –
CC(C)(Oc1ccc2c(=O)cc(-c3ccccc3)oc2c1)C(=O)N1CCN(c2ccccc2)CC1 | > 200 | 20.9 | –
O=C1OCc2c1cc1ccc(O)c(OC3OC(CO)C(O)C(O)C3O)c1c2-c1ccc2c(c1)OCO2 (centres undefined) | > 501 | > 501 | –
CN(/C(=N\O)c1ccccc1)c1ccccc1 | – | – | inactive
COc1ccc(N=N/C(=N/NC(=O)c2cc(Cl)ccc2C(=O)c2ccccc2)c2ccc(N(CCC#N)CCC#N)cc2C)cc1 | > 100 | 14.1 | –
O=C(/C=C(\S/C=C(/c1ccccc1)N1CCn2c(C(=O)c3ccccc3)c(C(=O)c3ccccc3)c(C(=O)c3ccccc3)c21)C(=O)c1ccccc1)c1ccccc1 | > 200 | 37.2 | –
O=C(O)c1[nH]c2c(=O)[nH]c(=O)[nH]c2c1Br | – | – | inactive

SMILES | EC50 [µM] | IC50 [µM] | outcome
CC(=O)C1C(=O)C(=O)N(c2ccc([N+](=O)[O-])cc2)C1=O (centres undefined) | > 200 | > 200 | –
COc1ccc(/C=C2\CCS(=O)(=O)c3ccccc3C2=O)cc1 | > 200 | 16.6 | –
OCn1nnc2ccccc21 | – | – | inactive
COc1c(-c2ccccc2)oc2c(CP(=O)(OC)OC)cccc2c1=O | > 200 | 56.2 | –
CCC(C)(O)c1cn(-c2cccc(S(=O)(=O)O)c2)nn1 (centres undefined) | > 417 | > 417 | –
O=C(Nc1ccccn1)c1ccccc1[Se][Se]c1ccccc1C(=O)Nc1ccccn1 | 3.55 | 8.13 | –
Brc1ccc(N2N=NC3C4CC(C5CCCC54)C32)cc1 (centres undefined) | > 5.62 | > 5.62 | –
CC(=O)OC(C(=O)NNC(=O)OC(C)(C)C)c1ccccc1 (centres undefined) | > 200 | > 200 | –
OCCN(CCO)c1ncnc2c1sc(=S)n2-c1ccccc1 | > 724 | 282 | –
CCCCCCCCCCCCCCCCCCOC(COP(=O)(O)OCC1OC(n2cc(C)c(=O)[nH]c2=O)CC1N=[N+]=[N-])COP(=O)(O)OC1CC(n2cc(C)c(=O)[nH]c2=O)OC1CO (centres undefined) | 0.17 | 30.9 | –
NC(N)=NCc1ccc2c(c1)OCO2 | > 200 | 166 | –
C/C(=N/NC(=O)c1ccncc1)c1ccc(NC(=O)C(=O)Nn2c(=S)[nH]c3ccccc3c2=O)cc1 | > 51.3 | > 51.3 | –
COC(=O)CN(CC(O)C(NC(C)=O)C(O)C=O)C(=O)OCc1ccccc1 (centres undefined) | > 200 | > 200 | –
c1ccc(C2(c3cc4ccccc4[nH]3)OCCO2)nc1 | > 200 | > 200 | –
Cc1cc(C)nc(NS(=O)(=O)c2ccc(Nc3c4ccccc4nc4c(C(=O)N5CCN(CCO)CC5)ccc(Cl)c34)cc2)n1 | > 34.7 | > 34.7 | –
Cc1cc(C)nc(NS(=O)(=O)c2ccc(Nc3c4ccccc4nc4c(C(=O)N5CCN(CCOS(C)(=O)=O)CC5)ccc(Cl)c34)cc2)n1 | > 30.9 | > 30.9 | –
CC1C(=O)N2C(=O)C(C)C(C)C(=O)N2C(=O)C1C (centres undefined) | > 53.7 | > 53.7 | –
COc1ccc(C(=O)CCC2(C)OCCO2)cc1OC | > 646 | 479 | –
COC(=O)c1ccc(S)c(S(=O)(=O)Nc2n[nH]c(N)n2)c1 | > 200 | > 200 | –
CCOC(=O)c1cc(-n2nnc3ccccc32)cn1C | > 200 | 46.8 | –
COc1cc(COC(=O)N2CCC2C(=O)O)c([N+](=O)[O-])cc1OC (centres undefined) | > 741 | > 741 | –

SMILES | EC50 [µM] | IC50 [µM] | outcome
Cn1cc(NC(=O)Nc2cc(C(=O)Nc3cc(C(=O)Nc4cc(C(=O)Nc5cc(P(=O)(O)O)c6cccc(P(=O)(O)O)c6c5)n(C)c4)n(C)c3)n(C)c2)cc1C(=O)Nc1cc(C(=O)Nc2cc(C(=O)Nc3cc(P(=O)(O)O)c4cccc(P(=O)(O)O)c4c3)n(C)c2)n(C)c1 | 0.288 | 75.9 | –
O=S(=O)(Oc1ccc2ccccc2c1-c1c(OS(=O)(=O)C(F)(F)F)ccc2ccccc12)C(F)(F)F | – | – | inactive
CC1CN=C(N(C(=O)Nc2ccc(Cl)c(Cl)c2)c2ccccc2)S1 (centres undefined) | > 200 | > 200 | –
O=S(=O)(O)c1cccc2c(N=Nc3ccc(N=Nc4ccc(Nc5ccccc5)c5c(S(=O)(=O)O)cccc45)c4ccccc34)cccc12 | > 50.1 | 34.7 | –
CCCCCOCC(=O)OC | > 200 | 112 | –
Cc1ccc(S(=O)(=O)n2cc(/C=C/C#N)c(-c3cn(S(=O)(=O)c4ccc(C)cc4)cc3-c3cn(S(=O)(=O)c4ccc(C)cc4)cc3/C=C/C#N)c2)cc1 | > 200 | > 200 | –
O=[N+]([O-])c1ccc(SSc2ccc([N+](=O)[O-])cc2Cl)c(Cl)c1 | > 200 | 10 | –
CN(C)CCOc1ccc(/C(=C(/CCCl)c2ccccc2)c2ccccc2)cc1 | > 43.7 | 0.38 | –
CC(C)=CC1CC(n2cc(C)c(=O)[nH]c2=O)ON1CCO (centres undefined) | > 200 | > 200 | –
Cc1ccc(N=N/C(=N/NC(=O)c2cc(Cl)ccc2O)c2ccc(N(CCC#N)CCC#N)cc2C)cc1 | > 200 | 10.7 | –
CC(=O)O/N=C1\C=Cc2c(no[n+]2[O-])C1=O | > 200 | 18.2 | –
COc1ccccc1N=C(N)N/N=C/c1c[nH]c2ccccc12 | – | – | inactive
CO[C@H]1/C=C/O[C@@]2(C)Oc3c(C)c(O)c4c(O)c(c(/C=N/N5C(C)CN(Cc6ccccc6)CC5C)c(O)c4c3C2=O)NC(=O)/C(C)=C\C=C\[C@H](C)[C@H](O)[C@@H](C)[C@@H](O)[C@@H](C)[C@H](OC(C)=O)[C@@H]1C (some centres undefined) | > 200 | 9.77 | –
CCOP(=O)(/C=C(\Cl)c1ccccc1)OCC | > 129 | > 129 | –
CC(C)O[C@H]1N(C2CC(N=[N+]=[N-])C(CO)O2)C(=O)NC(=O)[C@]1(C)Br (some centres undefined) | 2.88 | > 200 | –
CC(=O)OC1CCC2(C)C(CCC3C2CCC2(C)C3CCC2C(C)(C)O)C1 (centres undefined) | > 200 | 174 | –
O=C(/C=C/c1ccc2c(c1)OCO2)c1cccc2ccccc12 | > 6.61 | > 6.61 | –
CC(C)(Br)C(=O)C(Br)Br | > 200 | 5.25 | –
CC(C)OP(=O)(OC(C)C)C1=NN(c2ccc([N+](=O)[O-])cc2)C(P(=O)(OC(C)C)OC(C)C)=NN1c1ccc([N+](=O)[O-])cc1 | > 2.19 | > 2.19 | –
